Measured values as given in patent US20080124384A1, “Heteroaryl Substituted Piperazinyl-Pyridine Analogues” (priority 2005, published 2008).

Assays:
human capsaicin receptor [1] = biological target: T1, human capsaicin receptor (Homo sapiens, UniProt Q8NER1); assay: Calcium mobilization assay, determination of antagonist activity (Example 6); format: cell-based; settings: cells expressing human capsaicin receptor; capsaicin at its EC50; read-out: IC50 determined as described in Example 6
T1 construct: expressed in transfected cells; host or cells: HEK293 cells stably transfected with pBK-CMV construct
From the text: A cDNA encoding full length human capsaicin receptor (SEQ ID NO:1, 2 or 3 of U.S. Pat. No. 6,482,611) is subcloned in the plasmid pBK-CMV (Stratagene, La Jolla, Calif.) for recombinant expression in mammalian cells.
Human embryonic kidney (HEK293) cells are transfected with the pBK-CMV expression construct encoding the full length human capsaicin receptor using standard methods. […] Independent clones are isolated from this pool by limiting dilution to obtain clonal stable cell lines for use in subsequent experiments.
This Example illustrates representative calcium mobilization assays for use in evaluating test compounds for agonist and antagonist activity.
(§1) Cells transfected with expression plasmids (as described in Example 4) and thereby expressing human capsaicin receptor are seeded and grown to 70-90% confluency in FALCON black-walled, clear-bottomed 96-well plates (#3904, BECTON-DICKINSON, Franklin Lakes, N.J.). The culture medium is emptied from the 96 well plates and FLUO-3 AM calcium sensitive dye (Molecular Probes, Eugene, Oreg.) is added to each well (dye solution: 1 mg FLUO-3 AM, 440 μL DMSO and 440 μl 20% pluronic acid in DMSO, diluted 1:250 in Krebs-Ringer HEPES (KRH) buffer (25 mM HEPES, 5 mM KCl, 0.96 mM NaH2PO4, 1 mM MgSO4, 2 mM CaCl2, 5 mM glucose, 1 mM probenecid, pH 7.4), 50 μl diluted solution per well). Plates are covered with aluminum foil and incubated at 37° C. for 1-2 hours in an environment containing 5% CO2. After the incubation, the dye is emptied from the plates, and the cells are washed once with KRH buffer, and resuspended in KRH buffer.
To measure the ability of a test compound to agonize or antagonize a calcium mobilization response in cells expressing capsaicin receptors to capsaicin or other vanilloid agonist, the EC50 of the agonist capsaicin is first determined. An additional 20 μl of KRH buffer and 1 μl DMSO is added to each well of cells, prepared as described above. 100 μl capsaicin in KRH buffer is automatically transferred by the FLIPR instrument to each well. […] Data obtained between 30 and 60 seconds after agonist application are used to generate an 8-point concentration response curve, with final capsaicin concentrations of 1 nM to 3 μM.
Test compounds are dissolved in DMSO, diluted in 20 μl KRH buffer so that the final concentration of test compounds in the assay well is between 1 μM and 5 μM, and added to cells prepared as described above. The 96 well plates containing prepared cells and test compounds are incubated in the dark, at room temperature for 0.5 to 6 hours. It is important that the incubation not continue beyond 6 hours. Just prior to determining the fluorescence response, 100 μl capsaicin in KRH buffer at twice the EC50 concentration determined as described above is automatically added by the FLIPR instrument to each well of the 96 well plate for a final sample volume of 200 μl and a final capsaicin concentration equal to the EC50. The final concentration of test compounds in the assay wells is between 1 μM and 5 μM.

VR = settings: typically; no more than moderate affinity; read-out: Ki value (binds to VR); cited from earlier work
human capsaicin receptor [2] = biological target: T1, human capsaicin receptor; assay: Calcium mobilization assay, agonist response (Example 6); format: cell-based; settings: positive control in the agonist assay; read-out: approximate EC90 concentration
Procedure: as §1
To measure the ability of a test compound to agonize or antagonize a calcium mobilization response in cells expressing capsaicin receptors to capsaicin or other vanilloid agonist, the EC50 of the agonist capsaicin is first determined. An additional 20 μl of KRH buffer and 1 μl DMSO is added to each well of cells, prepared as described above. 100 μl capsaicin in KRH buffer is automatically transferred by the FLIPR instrument to each well. […]

T1 sequence (Q8NER1 whole entry): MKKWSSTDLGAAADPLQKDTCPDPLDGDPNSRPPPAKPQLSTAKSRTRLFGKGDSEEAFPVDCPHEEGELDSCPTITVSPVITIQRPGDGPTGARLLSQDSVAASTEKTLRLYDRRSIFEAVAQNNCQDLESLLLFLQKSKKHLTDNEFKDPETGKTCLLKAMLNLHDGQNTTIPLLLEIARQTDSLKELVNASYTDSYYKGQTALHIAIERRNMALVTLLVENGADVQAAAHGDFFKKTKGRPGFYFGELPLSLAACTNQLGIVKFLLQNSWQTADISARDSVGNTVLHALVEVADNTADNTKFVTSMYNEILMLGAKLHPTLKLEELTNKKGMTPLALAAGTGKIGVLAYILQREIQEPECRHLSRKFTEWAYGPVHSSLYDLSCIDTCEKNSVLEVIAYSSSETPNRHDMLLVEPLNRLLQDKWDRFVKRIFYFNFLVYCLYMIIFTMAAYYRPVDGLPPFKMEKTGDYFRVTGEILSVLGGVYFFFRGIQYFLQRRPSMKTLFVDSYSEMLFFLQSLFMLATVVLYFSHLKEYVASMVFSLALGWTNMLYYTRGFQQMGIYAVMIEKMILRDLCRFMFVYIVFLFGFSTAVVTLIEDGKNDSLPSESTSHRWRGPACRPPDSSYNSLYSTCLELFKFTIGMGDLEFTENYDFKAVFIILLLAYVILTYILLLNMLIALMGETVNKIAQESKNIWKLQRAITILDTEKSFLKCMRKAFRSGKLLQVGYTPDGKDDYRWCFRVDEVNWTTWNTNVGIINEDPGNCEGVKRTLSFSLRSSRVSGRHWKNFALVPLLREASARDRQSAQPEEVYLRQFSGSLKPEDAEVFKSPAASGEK

SMILES	IC50 (human capsaicin receptor [1]) [nM]	also measured
CC1CCCN1c1nc(-c2ccc(F)cc2)cc(N2CCC(c3nnn[nH]3)CC2)n1 (stereo not shown) [Compound 1, 4-(4-Fluoro-phenyl)-2-(2-methyl-pyrrolidin-1-yl)-6-[4-(1H-tetrazol-5-yl)-piperidin-1-yl]pyrimidine]	< 1000	–
CC1CCCN1c1nc(-c2ccc(F)c(Cl)c2)cc(N2CCN(c3nsnc3Cl)CC2)n1 (stereo not shown) [Compound 4]	< 1000	–
C[C@@H]1CCCN1c1nc(-c2ccc(F)c(Cl)c2)cc(N2CCN(c3nccn3C)CC2)n1 [Compound 5, 4-(3-Chloro-4-fluoro-phenyl)-6-[4-(1-methyl-1H-imidazol-2-yl)-piperazin-1-yl]-2-((R)-2-methyl-pyrrolidin-1-yl)-pyrimidine]	< 1000	–
CC1CCCN1c1nc(-c2ccc(F)cc2)cc(N2CCN(c3nccn3C)CC2)n1 (stereo not shown) [Compound 2, 4-(4-Fluoro-phenyl)-6-[4-(1-methyl-1H-imidazol-2-yl)-piperazin-1-yl]-2-(2-methyl-pyrrolidin-1-yl)-pyrimidine]	< 1000	–
Cl.Cl.Cl.Cl.Cl.Cl.N.N.N.N.N.N.N.N.N.N.N.N.N.N.[O-2].[O-2].[Ru+3].[Ru+3].[Ru+4] [ruthenium red]	–	Ki (VR): ≥ 140000 nM
COc1cc(CNC(=O)CCCC/C=C/C(C)C)ccc1O [capsaicin]	–	EC90 (human capsaicin receptor [2]): ~100 nM
CC1CCCN1c1nc(-c2ccc(F)cc2)cc(N2CCC(c3nccn3C)CC2)n1 (stereo not shown) [Compound 3]	< 1000	–
